biological target: T1, human GlyT1c transporter (Homo sapiens, UniProt P48067); assay: Radioligand binding assay using recombinant CHO cell membranes expressing human GlyT1; conditions: values given as upper bounds, read-out: radioligand binding Kiapp
T1 construct: expressed in transfected cells; host or cells: CHO cells (recombinant; membranes)
T1 sequence (P48067 1-706): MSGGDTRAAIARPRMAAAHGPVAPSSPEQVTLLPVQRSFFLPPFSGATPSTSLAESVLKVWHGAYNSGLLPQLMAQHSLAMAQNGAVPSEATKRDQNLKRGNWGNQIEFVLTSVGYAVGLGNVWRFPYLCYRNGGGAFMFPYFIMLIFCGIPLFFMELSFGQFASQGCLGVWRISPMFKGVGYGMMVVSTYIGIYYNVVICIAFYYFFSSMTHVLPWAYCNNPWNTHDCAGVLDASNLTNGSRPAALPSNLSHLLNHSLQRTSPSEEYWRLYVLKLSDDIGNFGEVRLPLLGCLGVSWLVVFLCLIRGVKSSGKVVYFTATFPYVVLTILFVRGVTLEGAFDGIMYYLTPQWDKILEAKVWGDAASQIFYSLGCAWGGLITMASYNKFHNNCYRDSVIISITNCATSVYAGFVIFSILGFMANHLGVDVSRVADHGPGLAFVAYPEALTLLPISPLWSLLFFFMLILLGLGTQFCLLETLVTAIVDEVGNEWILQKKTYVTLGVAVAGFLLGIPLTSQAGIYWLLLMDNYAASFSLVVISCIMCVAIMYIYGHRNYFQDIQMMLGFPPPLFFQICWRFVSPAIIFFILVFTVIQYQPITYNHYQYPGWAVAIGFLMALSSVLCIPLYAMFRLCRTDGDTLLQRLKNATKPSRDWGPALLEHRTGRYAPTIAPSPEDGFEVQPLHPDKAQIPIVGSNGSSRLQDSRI
Description: 2. Radioligand Binding Assays Using Recombinant CHO Cell Membranes Expressing Human GlyT1:
Radioligand binding to human GlyT1c transporter-expressing membranes was determined as described in Mezler et al., Molecular Pharmacology 74:1705-1715, 2008.

Ki | SMILES
≤ 10 nM | CCS(=O)(=O)NCc1cc2c(cc1F)OC[C@@H](NC)[C@H]2Cc1ccccc1 (relative stereo) [Example 27, cis-Ethanesulfonic acid (-4-benzyl-7-fluoro-3-methylamino-chroman-6-ylmethyl)-amide]
≤ 100 nM | CCS(=O)(=O)NCc1cc2c(cc1F)OC[C@@H](NC)[C@@H]2Cc1ccccc1 (relative stereo) [Example 28, trans-Ethanesulfonic acid (-4-benzyl-7-fluoro-3-methylamino-chroman-6-ylmethyl)-amide]
≤ 100 nM | CCS(=O)(=O)NCCOc1cc2c(cc1F)OC[C@@H](NC)[C@H]2Cc1ccccc1 (relative stereo) [Example 29, cis-Ethanesulfonic acid [2-(-4-benzyl-7-fluoro-3-methylamino-chroman-6-yloxy)-ethyl]-amide]
≤ 100 nM | CN[C@@H]1COc2cc(F)c(CNS(=O)(=O)c3cn(C)cn3)cc2[C@@H]1Cc1ccccc1 (relative stereo) [Example 31, cis-1-Methyl-1H-imidazole-4-sulfonic acid (-4-benzyl-7-fluoro-3-methylamino-chroman-6-ylmethyl)-amide]
≤ 10 nM | CN[C@@H]1COc2cc(F)c(CNS(=O)(=O)c3cn(C)cn3)cc2[C@H]1Cc1ccccc1 (relative stereo) [Example 32, trans-1-Methyl-1H-imidazole-4-sulfonic acid (-4-benzyl-7-fluoro-3-methylamino-chroman-6-ylmethyl)-amide]
≤ 10 nM | Cn1cnc(S(=O)(=O)NCc2ccc3c(c2)[C@H](Cc2ccccc2)[C@H](NCCC2CC2)CO3)c1 (relative stereo) [Example 33, cis-N-((-4-benzyl-3-((2-cyclopropylethyl)amino)chroman-6-yl)methyl)-1-methyl-1H-imidazole-4-sulfonamide 2,2,2-trifluoroacetate]
≤ 10000 nM | Cn1cnc(S(=O)(=O)NCc2ccc3c(c2)[C@H](Cc2ccccc2)[C@H](NCCC2CCCC2)CO3)c1 (relative stereo) [Example 34, cis-N-((-4-benzyl-3-((2-cyclopentylethyl)amino)chroman-6-yl)methyl)-1-methyl-1H-imidazole-4-sulfonamide 2,2,2-trifluoroacetate]
≤ 10 nM | CC(C)CCN[C@@H]1COc2ccc(CNS(=O)(=O)c3cn(C)cn3)cc2[C@@H]1Cc1ccccc1 (relative stereo) [Example 39, cis-N-((-4-benzyl-3-(isopentylamino)chroman-6-yl)methyl)-1-methyl-1H-imidazole-4-sulfonamide 2,2,2-trifluoroacetate]
≤ 100 nM | Cn1cnc(S(=O)(=O)NCc2ccc3c(c2)[C@H](Cc2ccccc2)[C@H](NCC2CCCC2)CO3)c1 (relative stereo) [Example 40, cis-N-((-4-benzyl-3-((cyclopentylmethyl)amino)chroman-6-yl)methyl)-1-methyl-1H-imidazole-4-sulfonamide 2,2,2-trifluoroacetate]
≤ 10 nM | Cn1cnc(S(=O)(=O)NCc2ccc3c(c2)[C@H](Cc2ccccc2)[C@H](NCC2CCC2)CO3)c1 (relative stereo) [Example 41, cis-N-((-4-benzyl-3-((cyclobutylmethyl)amino)chroman-6-yl)methyl)-1-methyl-1H-imidazole-4-sulfonamide 2,2,2-trifluoroacetate]
≤ 10 nM | Cn1cnc(S(=O)(=O)NCc2ccc3c(c2)[C@H](Cc2ccccc2)[C@H](N2CCCC2)CO3)c1 (relative stereo) [Example 62, cis-1-Methyl-1H-imidazole-4-sulfonic acid (-4-benzyl-3-pyrrolidin-1-yl-chroman-6-ylmethyl)-amide]
≤ 1000 nM | CS(=O)(=O)NCc1ccc2c(c1)[C@H](Cc1ccccc1)[C@H](N1CCCC1)CO2 (relative stereo) [Example 64, cis-N-(-4-Benzyl-3-pyrrolidin-1-yl-chroman-6-ylmethyl)-methanesulfonamide]
≤ 10 nM | O=S(=O)(CC1CC1)NCc1ccc2c(c1)[C@H](Cc1ccccc1)[C@H](N1CCCC1)CO2 (relative stereo) [Example 65, cis-N-(-4-Benzyl-3-pyrrolidin-1-yl-chroman-6-ylmethyl)-C-cyclopropyl-methanesulfonamide]
≤ 10 nM | N[C@@H]1COc2ccc(CNS(=O)(=O)CC3CC3)cc2[C@@H]1Cc1ccccc1 (relative stereo) [Example 67, cis-N-(-3-Amino-4-benzyl-chroman-6-ylmethyl)-C-cyclopropyl-methanesulfonamide]
≤ 100 nM | N[C@@H]1COc2ccc(CNS(=O)(=O)CC3CC3)cc2[C@H]1Cc1ccccc1 (relative stereo) [Example 68, trans-N-(-3-Amino-4-benzyl-chroman-6-ylmethyl)-C-cyclopropyl-methanesulfonamide]
≤ 100 nM | CCCS(=O)(=O)NCc1ccc2c(c1)[C@@H](Cc1ccccc1)[C@H](N)CO2 (relative stereo) [Example 72, trans-Propane-1-sulfonic acid (-3-amino-4-benzyl-chroman-6-ylmethyl)-amide]
≤ 1000 nM | CCCS(=O)(=O)NCCOc1ccc2c(c1)[C@H](Cc1ccccc1)[C@H](NC)C(C)(C)O2 (relative stereo) [Example 74, cis-Propane-1-sulfonic acid [2-(-4-benzyl-2,2-dimethyl-3-methylamino-chroman-6-yloxy)-ethyl]-amide]

Further lines, the molecule ahead of its results:

SMILES | Ki
CN[C@@H]1COc2ccc(CNS(=O)(=O)C3CCC3)cc2[C@H]1Cc1ccccc1 (relative stereo) [Example 26, trans-Cyclobutanesulfonic acid (4-benzyl-3-methylamino-chroman-6-ylmethyl)-amide] | ≤ 1000 nM
CCS(=O)(=O)NCCOc1cc2c(cc1F)OC[C@@H](NC)[C@@H]2Cc1ccccc1 (relative stereo) [Example 30, trans-Ethanesulfonic acid [2-(-4-benzyl-7-fluoro-3-methylamino-chroman-6-yloxy)-ethyl]-amide] | ≤ 1000 nM
CCCN[C@@H]1COc2ccc(CNS(=O)(=O)c3cn(C)cn3)cc2[C@@H]1Cc1ccccc1 (relative stereo) [Example 35, cis-N-((-4-benzyl-3-(propylamino)chroman-6-yl)methyl)-1-methyl-1H-imidazole-4-sulfonamide 2,2,2-trifluoroacetate] | ≤ 10 nM
Cn1cnc(S(=O)(=O)NCc2ccc3c(c2)[C@H](Cc2ccccc2)[C@H](NCC(C)(C)C)CO3)c1 (relative stereo) [Example 36, cis-N-((-4-benzyl-3-(neopentylamino)chroman-6-yl)methyl)-1-methyl-1H-imidazole-4-sulfonamide 2,2,2-trifluoroacetate] | ≤ 100 nM
CC(C)CN[C@@H]1COc2ccc(CNS(=O)(=O)c3cn(C)cn3)cc2[C@@H]1Cc1ccccc1 (relative stereo) [Example 37, cis-N-((-4-benzyl-3-(isobutylamino)chroman-6-yl)methyl)-1-methyl-1H-imidazole-4-sulfonamide 2,2,2-trifluoroacetate] | ≤ 10 nM
CN[C@@H]1COc2ccc(CNS(C)(=O)=O)cc2[C@H]1Cc1ccccc1 (relative stereo) [Example 61, trans-N-(-4-Benzyl-3-methylamino-chroman-6-ylmethyl)-methanesulfonamide] | ≤ 1000 nM
CCS(=O)(=O)NCc1ccc2c(c1)[C@H](Cc1ccccc1)[C@H](N1CCCC1)CO2 (relative stereo) [Example 63, cis-Ethanesulfonic acid (-4-benzyl-3-pyrrolidin-1-yl-chroman-6-ylmethyl)-amide] | ≤ 100 nM
Cn1cc(S(=O)(=O)NCc2ccc3c(c2)[C@H](Cc2ccccc2)[C@H](N2CCCC2)CO3)cn1 (relative stereo) [Example 66, cis-1-Methyl-1H-pyrazole-4-sulfonic acid (-4-benzyl-3-pyrrolidin-1-yl-chroman-6-ylmethyl)-amide] | ≤ 10 nM
N[C@@H]1COc2ccc(CNS(=O)(=O)C3CCC3)cc2[C@@H]1Cc1ccccc1 (relative stereo) [Example 69, cis-Cyclobutanesulfonic acid (-3-amino-4-benzyl-chroman-6-ylmethyl)-amide] | ≤ 100 nM
N[C@@H]1COc2ccc(CNS(=O)(=O)C3CCC3)cc2[C@H]1Cc1ccccc1 (relative stereo) [Example 70, trans-Cyclobutanesulfonic acid (-3-amino-4-benzyl-chroman-6-ylmethyl)-amide] | ≤ 1000 nM
CCCS(=O)(=O)NCc1ccc2c(c1)[C@H](Cc1ccccc1)[C@H](N)CO2 (relative stereo) [Example 71, cis-Propane-1-sulfonic acid (-3-amino-4-benzyl-chroman-6-ylmethyl)-amide] | ≤ 100 nM
CCS(=O)(=O)NCCOc1ccc2c(c1)[C@@H](Cc1ccccc1)[C@H](NC)C(C)(C)O2 (relative stereo) [Example 73, trans-Ethanesulfonic acid [2-(-4-benzyl-2,2-dimethyl-3-methylamino-chroman-6-yloxy)-ethyl]-amide] | ≤ 1000 nM

From patent US8853196B2, “Aminochromane, aminothiochromane and amino-1,2,3,4-tetrahydroquinoline derivatives, pharmaceutical compositions containing them, and their use in therapy” (AbbVie Deutschland GmbH & Co. KG, priority 2011, dated 2014)
